For one series, the system named is CEM/VLB-10. The experiment in a line: Drug resistance of P-glycoprotein overexpressing CEM/VLB-10 cells. The format is cell-based, human. The settings on record: CEM/VLB-10 versus CCRF-CEM. On the procedure:
(§1) Pivarubicin used for TNBC studies was synthesized by Dr. John Rimoldi (Univ. of Mississippi) using the previously described protocol. Doxorubicin HCl, rottlerin and all antibodies were purchased from Sigma-Aldrich (St. Louis, Mo.). For in vitro experiments, doxorubicin and pivarubicin were dissolved in DMSO. The final maximum DMSO concentration used for in vitro drug treatments (1% for 72 hours) was not cytotoxic. IL-3-dependent 32D.3 murine myeloid cells, CCRF-CEM human lymphoblastic leukemia cells and multidrug-resistant variants (generous gift of Dr. William T. Beck, St. Jude Children's Research Hospital, Memphis, Tenn.), 293 embryonic human kidney cells and HL-60 human acute myeloid leukemia cells transfected with Bcr-Abl, Bcl-XL or empty expression vectors (generous gift of Dr. Kapil Bhalla, Univ. of Miami) were maintained as previously described. K562 human chronic myelogenous leukemia and LNCaP human prostate cancer cells were purchased from ATCC (Manassas, Va.) and maintained as described by the vendor. LNCaP/Bcl-2 cells were the generous gift of Dr. Ralph Buttyan (Columbia Univ.). Luminescent MDA-MB-231-LM2 (LM-2; metastatic lung subpopulation isolated from human TNBC MDA-MB-231 cells transduced with eIF1a-Luc2-puro lentivirus) were generously provided by Dr. Yibin Kang, Princeton Univ.) and maintained in culture as previously described. […]

For the next series, the system named is CEM/VLB-100. In words: Drug resistance of P-glycoprotein overexpressing CEM/VLB-100 cells. In kind it is cell-based, human. The settings on record: CEM/VLB-100 versus CCRF-CEM. On the procedure:
as §1

Another series concerns MDA-MB-231 cells. In words: MTT cytotoxicity, TNBC monolayer MDA-MB-231. In kind it is cell-based, human. The settings on record: MDA-MB-231, 48 h. On the procedure: Rottlerin treatment of cells, cell viability analysis by MTT [28] and immunoblot identification of protein expression were performed and described previously.
(§2) Based upon the ability of pivarubicin to circumvent multiple mechanisms of resistance against doxorubicin, we then examined the efficacy of pivarubicin against TNBC in comparison to doxorubicin, using the following procedure, using two basal TNBC cell lines. MDA-MB-231 cells and SUM-159 cells were maintained under adherent monolayer growth conditions. Upon reaching 50% confluency, cells were treated for 48 h with the dose range of doxorubicin or pivarubicin as indicated in FIGS. 6A and 6B.
In the absence of specific receptor targets, the current treatment of metastatic TNBC relies on doxorubicin-based multidrug therapy, with only limited effectiveness. […] Once achieving a primary tumor volume of 150-190 mm^3, mice were randomized into three cohorts for treatment with the MTD of pivarubicin or doxorubicin, or the equivalent volume per body weight of vehicle.

For another series, the system named is SUM159 cells. The experiment in a line: MTT cytotoxicity, TNBC monolayer SUM159. The settings on record: SUM159, 48 h. The format is cell-based. On the procedure: as §2, with “6B. Cell viability was corrected for death observed in vehicle-only-treated cells (<1% ethanol final well concentration).” for “6B.”
The subject of another series is LM2 tumors. The experiment in a line: Orthotopic xenograft of luminescent MDA-MB-231 (LM2) cells in mammary glands. On the procedure: Monolayer LM2 cells were trypsinized and resuspended in DMEM media containing 10% FBS and 1× antibiotic/antimitotic. Cell concentration was adjusted to yield 2.5 […] for each 10 uL injection in PBS. After preparation for injection, cells were kept on ice at all times. Cells were surgically implanted into the left and right inguinal mammary glands of 4-week-old female NSG mice (NOD/SCID IL2Rγ−/−; Jackson Laboratory [Bar Harbor Me.] #5557) bred in-house. Mice were anesthetized with 1.2% avertin via intraperitoneal (i.p.) injection prior to surgery. Mice were also injected subcutaneously between shoulder blades with rimadyl for pain relief on day of surgery and on day following surgery. Primary tumor growth prior to and during treatment was monitored initially by manual palpation for tumor appearance, then twice weekly using digital calipers. Tumor volume was calculated by the formula: Volume=(Width2×Length)/2. When tumors attained a volume of approximately […], cohorts of 10 randomized drug-naïve, female, NSG mice (8±1 weeks old, 23±2 g) were administered the maximum tolerated dose (MTD) of pivarubicin, doxorubicin or the equivalent volume of vehicle (70% sterile saline, 15% ethanol, 15% Cremophor EL) as a bolus i.p. injection in parallel experiments. Tumor volumes were measured in a blinded manner.
Mice were imaged using Xenogen In Vivo Imaging System® Lumina from Perkin Elmer (Waltham Mass.). Stock D-Luciferin, Firefly, potassium salt (Perkin Elmer, 122799) was prepared in DPBS at a concentration of 30 mg/mL and sterile filtered with 0.2 micrometer syringe filter. Luciferin was further diluted to 15 mg/mL in DPBS prior to injection. Mice were injected i.p. with 200 uL of luciferin. Primary tumors were imaged by placing mice in dorsal recumbency using luminescent setting of auto exposure, field of view D with resolution setting of 4 (medium binning), 10 minutes after injection with luciferin, approximately 5 minutes following anesthetization with isoflurane. Data are reported as total flux in photons per second (p/s) using Living Image software.
In a study of doxorubicin treatment of TNBC-bearing NSG mice, LM2 cells were implanted into the 4R and 4L cleared mammary fat pads of female NSG mice and permitted to proliferate for 26 days until a tumor volume range of 125-190 mm3 was reached based on caliper measurements. Doxorubicin was administered IP rapid push in 70% sterile saline, 15% EtOH, 15% Cremophor EL at 14-day intervals, with tumor volumes measured at indicated days post-implantation, as summarized in FIG. 7A. […] At endpoint, mice were euthanized, and primary tumors resected for volume (FIG. 7B), weight (FIG. 7C), and luminescence (FIG. 7D) measurements. Endpoint results are expressed as the mean±standard error of 10 mice per group. Statistical significance was determined by the Wilcoxon rank-sum test.
Pivarubicin treatment of TNBC-bearing NSG mice was also studied. LM2 cells were implanted into the 4R and 4L cleared mammary fat pads of female NSG mice and permitted to proliferate for 22-24 days until a tumor volume range of 125-190 mm3 was reached based on caliper measurements. Pivarubicin was administered IP rapid push in 70% sterile saline, 15% EtOH, 15% Cremophor EL as either a single dose at 26.6 mg/kg (FIG. 8A) or in two 16.5-mg/kg doses at a 14-day interval (FIG. 8B) with tumor volumes measured at indicated days post-implantation. […] At endpoint, mice were euthanized, and primary tumors resected for volume (FIG. 8C) and weight (FIG. 8D) measurements. Results are expressed as the mean±standard error of 10 mice per group. Statistical significance was determined by the Wilcoxon rank-sum test.

[1] abbreviates: two doses of 16.5 mg/kg i.p. at two-week interval, endpoint.

The source of these data is US11666589B2, “Pivarubicin and benzarubicin compositions” (Paradox Pharmaceuticals, Inc., priority 2020, dated 2023).

Several values for one entry are separate records, joined by “and”; a condition that tells them apart may be missing. Identical values can stand only once. Like-named read-outs stand apart in the source and are kept apart here.

One may read the IC90 as the concentration at which the effect reaches the 90% level. As usually defined, the IC50 is the point on the concentration scale where inhibition reaches its midpoint. As to `COc1cccc2c1C(=O)c1c(O)c3c(c(O)c1C2=O)C[C@@](O)(C(=O)CO)C[C@@H]3O[C@H]1C[C@H](N)[C@H](O)[C@H](C)O1` [Doxorubicin, reference compound], the resistance in the series on CEM/VLB-10 is on record as 12 fold; in the series with CEM/VLB-100, 73 fold. In addition, the IC90 is more than 20 µM in the series with MDA-MB-231 cells (Homo sapiens), 20 µM with MDA-MB-231 cells and more than 20 µM in the series on SUM159 cells. In the series with SUM159 cells, this molecule yielded an IC50 of 4 µM. For the same molecule, the “tumor growth compared with vehicle treatment (volume, weight)” value in the series on LM2 tumors (1.4 mg/kg, then 1.6 mg/kg 14 days later, i.p.) is “failed to exhibit reduced growth”. The “weight loss in tumor-bearing mice” value with LM2 tumors (after 1.4 mg/kg and 1.6 mg/kg) is “excessive and irreversible weight loss”.
Take `COc1cccc2c1C(=O)c1c(O)c3c(c(O)c1C2=O)C[C@@](O)(C(=O)COC(=O)C(C)(C)C)C[C@@H]3O[C@H]1C[C@H](NCc2ccccc2)[C@H](O)[C@H](C)O1` [Pivarubicin, N-Benzyladriamycin-14-pivalate]: the resistance result is “no resistance” in the series on CEM/VLB-10 and 3 fold in the series on CEM/VLB-100. In addition, the IC50 with MDA-MB-231 cells amounted to 2.5 µM; in the series on SUM159 cells (MTT, read-out: IC50) it was 1.5 µM. Further, the concentration for an effect of 90% (IC90) was 4.5 µM and 5.1 µM in the series with MDA-MB-231 cells (read-out: IC90); 1.7 µM in the series with SUM159 cells (MTT, read-out: IC90). In addition, the “mean decrease in tumor volume compared with mean volume prior to drug administration” value in the series on LM2 tumors (single MTD dose (26.6 mg/kg i.p.)) amounted to 40%. Also, in the series on LM2 tumors (single MTD, tumor-bearing NSG mice), the “mean weight loss (poorly reversible)” value worked out at 20%. The “decrease in tumor volume compared with vehicle treatment” value in the series with LM2 tumors (setting [1]) turned out to be 50%. Besides, the “decrease in tumor weight compared with vehicle treatment” value with LM2 tumors (setting [1]) came out at 40%.
